Experimental data: patent publication US9481676B2, “Azepino[4,5-B]indoles and methods of use” (Medivation Technologies, Inc., priority 2008, dated 2016)

Assays:
[1] = target: T1, human recombinant dopamine D2L receptor (Homo sapiens, UniProt P14416); test: Dopamine D2L radioligand binding ([3H]Spiperone); settings: compound at 1 μM; read-out: Dopamine (1 μM) D2L, percent inhibition of specific binding
T1 construct: expressed in transfected cells; host or cells: CHO cells
How it was run: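 Binding measured by filtration and counting, reported as % inhibition of specific [3H]spiperone binding (0.16 nM tracer; 10 μM haloperidol for nonspecific). Compounds tested at ≤1 μM in 1% DMSO for 120 min at 25° C against CHO-expressed human D2L in pH 7.4 Tris-HCl buffer.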

[2] = target: T2, human recombinant adrenergic α1D receptor (Homo sapiens, UniProt P25100); test: Adrenergic alpha1D radioligand binding ([3H]Prozosin); settings: compound at 1 μM; read-out: Adrenergic (1 μM) α1D, percent inhibition of specific binding
T2 construct: expressed in transfected cells; host or cells: HEK-293 cells
T2 sequence (P25100 1-572): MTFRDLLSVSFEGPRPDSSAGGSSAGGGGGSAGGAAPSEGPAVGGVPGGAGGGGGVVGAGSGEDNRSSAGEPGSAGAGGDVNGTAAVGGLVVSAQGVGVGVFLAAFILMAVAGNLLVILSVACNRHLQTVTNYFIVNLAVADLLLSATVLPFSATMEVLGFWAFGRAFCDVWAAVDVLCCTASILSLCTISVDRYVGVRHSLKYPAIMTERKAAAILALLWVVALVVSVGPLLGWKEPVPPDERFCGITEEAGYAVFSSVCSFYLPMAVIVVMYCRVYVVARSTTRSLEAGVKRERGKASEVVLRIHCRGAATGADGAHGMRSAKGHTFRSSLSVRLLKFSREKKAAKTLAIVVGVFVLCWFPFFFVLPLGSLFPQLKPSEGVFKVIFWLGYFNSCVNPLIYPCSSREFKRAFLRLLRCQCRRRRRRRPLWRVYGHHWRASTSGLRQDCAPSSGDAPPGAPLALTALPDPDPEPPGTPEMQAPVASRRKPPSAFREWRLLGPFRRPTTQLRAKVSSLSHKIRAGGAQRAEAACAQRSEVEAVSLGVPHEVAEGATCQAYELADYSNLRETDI
How it was run: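 Membranes from HEK-293 cells expressing the human receptor in 50 mM Tris-HCl pH 7.4 were incubated 60 min at 25 °C with 0.6 nM [3H]prazosin. Nonspecific binding was defined with 10 μM phentolamine, and bound ligand measured by filtration.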

[3] = target: T3, human recombinant histamine H2 receptor (Homo sapiens, UniProt P25021); test: Histamine H2 radioligand binding ([125I]Aminopotentidine); settings: compound at 1 μM; read-out: Histamine Binding (1 μM) H2, percent inhibition of specific binding
T3 construct: expressed in transfected cells; host or cells: CHO-K1 cells
T3 sequence (P25021 whole entry): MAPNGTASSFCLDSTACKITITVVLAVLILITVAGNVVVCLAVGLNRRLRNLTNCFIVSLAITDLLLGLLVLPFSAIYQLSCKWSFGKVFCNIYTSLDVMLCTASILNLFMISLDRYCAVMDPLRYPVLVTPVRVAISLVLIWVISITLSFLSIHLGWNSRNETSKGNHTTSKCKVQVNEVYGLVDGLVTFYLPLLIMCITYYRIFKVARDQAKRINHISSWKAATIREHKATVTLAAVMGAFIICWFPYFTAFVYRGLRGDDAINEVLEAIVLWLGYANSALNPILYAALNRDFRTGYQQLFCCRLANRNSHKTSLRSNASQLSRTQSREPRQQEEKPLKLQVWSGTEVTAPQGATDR
How it was run: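 Membranes from CHO-K1 cells expressing recombinant human H2 receptor, in 50 mM phosphate buffer pH 7.4, incubated with 0.1 nM [125I]aminopotentidine for 120 min at 25 °C; nonspecific binding defined with 3 μM tiotidine.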

[4] = target: T4, human recombinant adrenergic α2A receptor (Homo sapiens, UniProt P08913); test: Adrenergic alpha2A radioligand binding ([3H]MK-912); settings: compound at 1 μM; read-out: Adrenergic (1 μM) α2A, percent inhibition of specific binding
T4 construct: expressed in transfected cells; host or cells: insect Sf9 cells
T4 sequence (P08913 1-465): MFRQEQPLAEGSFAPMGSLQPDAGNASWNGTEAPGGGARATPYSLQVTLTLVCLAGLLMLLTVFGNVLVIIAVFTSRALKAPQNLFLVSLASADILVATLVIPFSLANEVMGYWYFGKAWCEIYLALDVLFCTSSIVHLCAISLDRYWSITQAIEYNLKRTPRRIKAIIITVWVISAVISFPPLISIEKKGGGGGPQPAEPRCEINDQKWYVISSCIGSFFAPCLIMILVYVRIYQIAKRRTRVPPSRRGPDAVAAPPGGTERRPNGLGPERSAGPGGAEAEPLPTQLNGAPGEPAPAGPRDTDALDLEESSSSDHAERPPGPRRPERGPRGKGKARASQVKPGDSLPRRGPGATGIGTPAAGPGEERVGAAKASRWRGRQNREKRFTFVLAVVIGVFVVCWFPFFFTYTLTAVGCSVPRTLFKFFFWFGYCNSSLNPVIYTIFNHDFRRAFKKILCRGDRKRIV
How it was run: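 Membranes of Sf9 cells expressing human recombinant α2A receptor were incubated with compound and 1 nM [3H]MK-912 for 60 min at 25 °C in 50 mM Tris-HCl pH 7.4, 12.5 mM MgCl2, 2 mM EDTA. Nonspecific binding: 10 μM WB-4101.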

T1 sequence (P14416 whole entry): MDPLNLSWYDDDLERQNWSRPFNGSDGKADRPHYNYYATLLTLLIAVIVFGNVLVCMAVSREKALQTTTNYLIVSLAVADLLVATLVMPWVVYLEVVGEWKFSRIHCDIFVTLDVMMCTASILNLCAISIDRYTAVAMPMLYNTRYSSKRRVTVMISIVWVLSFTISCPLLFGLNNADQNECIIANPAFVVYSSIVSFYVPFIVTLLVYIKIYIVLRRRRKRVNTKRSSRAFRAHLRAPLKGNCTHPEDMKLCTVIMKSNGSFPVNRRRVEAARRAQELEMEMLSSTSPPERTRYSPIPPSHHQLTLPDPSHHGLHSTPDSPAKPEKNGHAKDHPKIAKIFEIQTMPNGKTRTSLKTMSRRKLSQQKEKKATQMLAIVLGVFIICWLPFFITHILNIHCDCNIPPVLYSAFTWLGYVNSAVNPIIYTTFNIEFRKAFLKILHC

Row | SMILES | inhibition at 1 µM [1] [%] | inhibition at 1 µM [2] [%] | inhibition at 1 µM [3] [%] | inhibition at 1 µM [4] [%]
1 | Cc1ccc2c(c1)c1c(n2CC(O)c2ccc(Cl)cc2)CCN(C)CC1 (centres unmarked) [Compound No. 17, 1-(4-chlorophenyl)-2-(2,3,4,5-tetrahydro-3,9-dimethylazepino[4,5-b]indol-6(1H)-yl)ethanol] | 34 | 95 | 84 | 105
2 | C/C(=C\n1c2c(c3cc(C)ccc31)CCN(C)CC2)c1ccc(Cl)cc1Cl [Compound No. 238, (E)-6-(2-(2,4-dichlorophenyl)prop-1-enyl)-3,9-dimethyl-1,2,3,4,5,6-hexahydroazepino[4,5-b]indole] | 7 | 30 | 98 | 98
3 | Cc1ccc2c(c1)c1c(n2CC(=O)N2CCCCC2)CCN(C)CC1 [Compound No. 32, 2-(2,3,4,5-tetrahydro-3,9-dimethylazepino[4,5-b]indol-6(1H)-yl)-1-(piperidin-1-yl)ethanone] | -1 | 4 | -5 | 39
4 | CN1CCc2c(n(CC(O)c3ccc(F)c(F)c3)c3ccc(Cl)cc23)CC1 (centres unmarked) [Compound No. 58, 2-(9-chloro-2,3,4,5-tetrahydro-3-methylazepino[4,5-b]indol-6(1H)-yl)-1-(3,4-difluorophenyl)ethanol] | 47 | 88 | 91 | 95
5 | CN1CCc2c(n(CCc3ccccn3)c3ccc(Cl)cc23)CC1 [Compound No. 8, 9-chloro-1,2,3,4,5,6-hexahydro-3-methyl-6-(2-(pyridin-2-yl)ethyl)azepino[4,5-b]indole] | 42 | 91 | 68 | 95
6 | CN1CCc2c(n(CC(=O)N3CCOCC3)c3ccc(Cl)cc23)CC1 [Compound No. 60, 2-(9-chloro-2,3,4,5-tetrahydro-3-methylazepino[4,5-b]indol-6(1H)-yl)-1-morpholinoethanone] | -9 | -1 | 6 | 7
7 | Cc1ccc2c(c1)c1c(n2CC(=O)N2CCOCC2)CCN(C)CC1 [Compound No. 38, 2-(2,3,4,5-tetrahydro-3,9-dimethylazepino[4,5-b]indol-6(1H)-yl)-1-morpholinoethanone] | 21 | 38 | 26 | 77
8 | C/C(=C\n1c2c(c3cc(C)ccc31)CCN(C)CC2)c1ccc(Cl)cc1 [Compound No. 33, 6-((E)-2-(4-chlorophenyl)prop-1-enyl)-1,2,3,4,5,6-hexahydro-3,9-dimethylazepino[4,5-b]indole] | 35 | 99 | 101 | 97
9 | Cc1ccc2c(c1)c1c(n2CC(=O)OC2CCCC2)CCN(C)CC1 [Compound No. 55, Cyclopentyl-2-(2,3,4,5-tetrahydro-3,9-dimethylazepino[4,5-b]indol-6(1H)-yl)acetate] | 6 | 8 | -3 | 12
10 | Cc1ccc2c(c1)c1c(n2C(=O)Cc2ccc(F)cc2)CCN(C)CC1 [Compound No. 285, 1-(3,9-dimethyl-2,3,4,5-tetrahydroazepino[4,5-b]indol-6(1H)-yl)-2-(4-fluorophenyl) ethanone] | 21 | 89 | 74 | 91
11 | Cc1ccc2c(c1)c1c(n2CCc2ccccn2)CCN(C)CC1 [Compound No. 9, 1,2,3,4,5,6-hexahydro-3,9-dimethyl-6-(2-(pyridin-2-yl)ethyl)azepino[4,5-b]indole] | 20 | 80 | 44 | 88
